Calls of active or inactive are those of the source. The calls are words filed in the database; no cut-off is given here.
Key:
[1] = Binding affinity to N-terminal polyhis-tagged Mycobacterium tuberculosis ICL1 C191S mutant expressed in Escherichia coli BL21 (DE3) in presence of MgCl2 by NMR binding analysis
[2] = test system: Mycobacterium tuberculosis; test: Binding affinity to N-terminal polyhis-tagged Mycobacterium tuberculosis ICL1 C191S mutant expressed in Escherichia coli BL21 (DE3) assessed as compound-protein covalent adduct formation by measuring molecular mass at 1 mM after 12 hrs in presence of MgCl2 by LC-MS analysis

C=C(CC(=O)O)C(=O)O [ITACONATE]
Kd [1]: 155 µM | Activity [2]: Active

From ChEMBL document CHEMBL4680069, “Itaconate is a covalent inhibitor of the Mycobacterium tuberculosis isocitrate lyase” (RSC Med Chem, 2021)
